Three molecules from US20210317408A1, “METHODS AND COMPOSITIONS FOR GENETICALLY MODIFYING LYMPHOCYTES IN BLOOD OR IN ENRICHED PBMCS” (Exuma Biotech Corp., priority 2018, published 2021) can be followed below.

Data set [1] relates to unstimulated PBMCs. The data set is described as follows: Time course of lentiviral transduction of unstimulated PBMCs, 4 hours to less than 1 minute. Type of data set: cell-based, human. The following applies: 10 μM during 4 hour transduction, replenished in recovery medium.
Data set [2] deals with transduced human PBMCs expressing a CAR in CHO, CHO-ROR2 or CHO-AXL tumors. The data set is described as follows: miRNA library in vivo screen: miRNA blocks recovered from tumors 20 days after dosing transduced PBMCs. On the set-up: species or system mouse. The following applies: conclusion from miRNA constructs recovered from tumors at day 20. The text has this: 108 gBlocks® Gene Fragments were used to generate a library of constructs each containing 4 miRNA precursors in series in positions 1 (P1), 2 (P2), 3 (P3), and 4 (P4). Each gBlock® was specific to P1, P2, P3, or P4 and contained a miR-155 framework (SEQ ID NO:457), including a 5′arm and a 3′arm as described in Example 17 of WO 2019/055946, in which a unique miRNA fragment targeting an mRNA transcript corresponding to 1 of 27 different genes was used to replace the miR-155 stem-loop precursor. For clarity, the sequences of miRNA fragments differed for each position P1-P4 even among miRNA fragments that targeted mRNA transcripts corresponding to the same gene. The gBlocks® for each position contained a unique 40 bp overlap sequence and the type IIs assembly method was used to assemble combinations of four gBlocks® in their prescribed order, to generate the library. By these methods, a total diversity of 531,441 unique constructs (27 miRNA at P1×27 miRNA at P2×27 miRNA at P3×27 miRNA at P4) was possible.
The library of miRNA constructs was separately cloned into the EF-1 alpha intron A of F1-1-315 and F1-2-314 to generate Library 315 and Library 314, respectively. In addition to the EF-1 alpha promoter, F1-1-315 included a CD8a signal peptide, an anti-ROR2:CD28:CD3z CAR, T2A, and an eTag. […]

With `C[C@@H]1CCO[C@H]2Cn3cc(C(=O)NCc4ccc(F)cc4F)c(=O)c(O)c3C(=O)N12` [dolutegravir], the inhibition of transduction result in data set [1] was “inhibition of transduction”.
The same measure, in the same setting: under `Cc1cc(C)c(Nc2ccnc(Nc3ccc(C#N)cc3)n2)c(C)c1` [dapivirine] stands “inhibition of transduction”.

B1: SMAD4: miRNA in miR-155 framework directed against SMAD4, SEQ ID NOs:406-409 (nucleic acid)
DNA 1: CGGCACCTGCGCTGCCGTTGGATCGGGGATGAAAGCTGGCGCTGGAGGCTTGCTGAAGGCTGTATGCTGAATTAGGTGTGTATGGTGCAGGTTTTGGCCACTGACTGACCTGCACCACACACCTAATTCAGGACACAAGGCCTGTTACTAGCACTCACATGGAACAAATGGCCCACATTGGTGCCGGATGAAGCTCTTATGTTGCGTCCCATCGCAGGTGCCT
DNA 2: CCTCACCTGCTTGCGTCCCATTCTGGAGGCTTGCTGAAGGCTGTATGCTGAAGTACTTCGTCTAGGAGCTGGTTTTGGCCACTGACTGACCAGCTCCTACGAAGTACTTCAGGACACAAGGCCTGTTACTAGCACTCACATGGAACAAATGGCCGTTGCCTGAGTCTTGGCAGCGAGAGATCACTAACTGCTAAGCAGGTGCTT
DNA 3: TGTCACCTGCACTAACTGCTAACTGGAGGCTTGCTGAAGGCTGTATGCTGTATCCCACGATCTACTCCCCGGTTTTGGCCACTGACTGACCGGGGAGTATCGTGGGATACAGGACACAAGGCCTGTTACTAGCACTCACATGGAACAAATGGCCGTGTTAATTGTCCATGTAGCGAGGCATCCTTATGGCGTGGGCAGGTGTCC
DNA 4: CCTTCACCTGCCTTATGGCGTGGCTGGAGGCTTGCTGAAGGCTGTATGCTGTTATGATGGTAAGTAGCTGGCGTTTTGGCCACTGACTGACGCCAGCTATACCATCATAACAGGACACAAGGCCTGTTACTAGCACTCACATGGAACAAATGGCCGGTGTCCGTTATCGGGGAAGAAGGTCGCGCACATAGCAGGTGTCC
modifications: Synthetic SMAD4 miRNA at P1; Synthetic SMAD4 miRNA at P2; Synthetic SMAD4 miRNA at P3; Synthetic SMAD4 miRNA at P4
As to B1, the “effect of knocking down the transcript on T cells in the tumor microenvironment” value in data set [2] is on record as “promote the survival and/or proliferation of T cells”.
